# Read-outs that look alike come from different tables or passages of the source.
# Columns and labels:
# [1] = system: histamine-induced conjunctival vascular permeability; settings: topical drug administered 2 to 8 hours before subconjunctival histamine challenge; Evans blue dye i.v.; cited from earlier work
# [2] = Ocular in vivo biodistribution, bilastine tissue concentration by LC-MS/MS; set-up: species or system Dutch Belted rabbits; settings: Dutch Belted, topical, 24 hours post-administration, rabbit, 30 μL of 0.6% w/v formulation in each eye, single occasion
# Method: The aqueous ophthalmic formulations of bilastine were prepared at a bilastine concentration of 0.6% w/v. The excipients were as indicated above in Table 1, i.e., also comprised HPB 90 mg/mL, methylcellulose 0.1 mg/mL, sodium hyaluronate 1 mg/mL and glycerin 16.1 mg/mL.
# 42, 4-5 month-old Dutch Belted rabbits were selected as test subjects. The weight of the animals at treatment start was from 1.6 to 2.1 kg.
# Animals received 30 μL of the ophthalmic formulation in each eye on a single occasion. The ophthalmic formulation was placed directly on both eyes of each animal by means of an automatic pipette. A new pipette tip was used for each eye.
# The eyes of the test animals were not washed after instillation. Animals were weighed before administration and observed after administration to record any possible clinical sign.
# Two to three animals were sacrificed at each time point (0.5, 1, 2, 4, 6, 8, 12 and 24 hours) and the following tissues from both eyes were collected: Aqueous humor, vitreous humor, cornea, conjunctiva, iris/ciliary body, crystalline lens and retina/choroid. Directly after sampling, all solid matrices were weighed (4 decimal precision) to determine the amount of each tissue collected.
# Bilastine concentration was determined by LC-MS/MS.
# Bilastine analyses were performed according to analytical methods: • PKH/MOA/1022 for rabbit plasma, • PKH/MOA/1042 for rabbit aqueous humor, • PKH/MOA/1043 for rabbit vitreous humor, • PKH/MOA/1028 for rabbit cornea homogenate, • PKH/MOA/1041 for rabbit iris/ciliary body homogenate, • PKH/MOA/1036 for rabbit conjunctiva homogenate, • PKH/MOA/1032 for rabbit crystalline lens homogenate, • PKH/MOA/1029 for rabbit retina/choroid homogenate, which were previously developed and validated at Eurofins|ADME BIOANALYSES according to the Guidance for Industry—Bioanalytical Method Validation—FDA May 2018 and EMA Guideline—EMEA/CHMP/EWP/192217/2009—21 Jul. 2011, in the studies 18-014A to 18-014H.
# The analytical methods involved protein precipitation for plasma and involved dilution for other matrices followed by LC-MS/MS analysis using F21201RR (Bilastine-d6) as internal standard.
smiles,measurement,setting,value
"CCOCCn1c(C2CCN(CCc3ccc(C(C)(C)C(=O)O)cc3)CC2)nc2ccccc21 [bilastine, 2-[4-(2-{4-[1-(2-Ethoxyethyl)-1H-benzimidazol-2-yl]-1-piperidinyl}ethyl)phenyl]-2-methylpropanoic acid]",ED50 (in vivo anti-histaminic activity),[1],50% efficacy was not achieved
same,concentration at 24 h,"[2]; conjunctiva, read-out: bilastine concentration in conjunctiva (mean value)",388 ng/g
same,concentration at 24 h,"[2]; cornea, read-out: bilastine concentration in cornea (mean value)",28.7 ng/g
same,concentration at 24 h,"[2]; crystalline lens, read-out: bilastine concentration in crystalline lens",0.12 ng/g
same,concentration at 24 h,"[2]; iris/ciliary body, read-out: bilastine concentration in iris/ciliary body",12.4 ng/g
same,concentration at 24 h,"[2]; retina/choroid, read-out: bilastine concentration in retina/choroid",1.91 ng/g

# From patent US20260027099A1, “OPHTHALMIC COMPOSITIONS COMPRISING BILASTINE, A BETA-CYCLODEXTRIN AND AT LEAST ONE GELLING AGENT” (FAES FARMA, S.A., priority 2018, published 2026)
